Reference: US20160250177A1, “MODIFIED DOCETAXEL LIPOSOME FORMULATIONS AND USES THEREOF” (MALLINCKRODT LLC, priority 2015, published 2016)
Where two headings read alike, the source gives them in different places.

Assays:
[1] = clinical; conditions: human, in vivo
[2] = human, in vivo; for AUC/Dose / CL / Cmax/Dose / Vss / AUC(0-inf): iv
[3] = test system: PC3 human prostate xenograft; conditions: for median survival: docetaxel
Description: In another study, athymic male nude mice bearing PC3 human prostate xenograft were given two or four intravenous (IV) doses of PEGylated TD-1 liposome, Taxotere® or saline. Dosing intervals were twenty-one days for two cycles or every four days for four cycles.
Tumor volume was measured 2-3 times per week using the Biopticon tumor imaging system and tumor volume data was analyzed to determine TGD and partial tumor regression. Survival analysis was conducted and median survival time determined.

[4] = cited from earlier work
[5] = Tissue distribution in mice with A549 xenograft; conditions: for Kidney AUC of docetaxel / Liver AUC of docetaxel / Lung AUC of docetaxel / Muscle AUC of docetaxel / Spleen AUC of docetaxel / Tumor AUC of docetaxel: single IV
Description: The plasma pharmacokinetics and distribution were studied in female athymic nude mice each implanted subcutaneously with A549 cells (human non-small cell lung cancer). Once tumors reached a volume of 100-300 mm^3, animals were randomized into 4 groups.
Three animals were sacrificed at 1, 4, 24, 72 (3 days), 168 (7 days), 216 (9 days), 336 (14 days), 432 (18 days) and 504 hours (21 days) post injection.

[6] = test system: human PC3 (prostate) tumor xenograft; assay: Antitumor activity, single IV dose, PC3 xenograft; conditions: for Partial Tumor Regression (%) / TGD / TGD (%) / TGI (%) / median survival: single IV
Description: Tumor cell lines were implanted subcutaneously into the flank of nude (immunodeficient) mice and allowed to grow to a fixed size. […] In each case, where possible, doses were selected as providing equivalent levels of toxicity/tolerance. […] Tumor volume was analyzed to determine tumor growth delay (TGD) and partial regression. Mice were removed from the study if they lost 20% of their initial bodyweight or became moribund or if their tumor volume exceeded 2500 mm^3 or the tumor ulcerated. If less than half of the initial cohort of mice remained, that group was no longer graphed or included in further tumor analysis. However, any remaining animals were followed until completion of the in-life observation period and included in a survival analysis.

[7] = high dose Taxotere® 100 mg/m^2, van Oosterom 1995

## CC(=O)O[C@@]12CO[C@@H]1C[C@H](O)[C@@]1(C)C(=O)[C@H](O)C3=C(C)[C@@H](OC(=O)[C@H](OC(=O)CN4CCN(C)CC4)[C@@H](NC(=O)OC(C)(C)C)c4ccccc4)C[C@@](O)([C@@H](OC(=O)c4ccccc4)[C@H]21)C3(C)C [TD-1]
[1]; average t1/2 for TD-1
  half-life: ~51 h
[1]; iv, 3 mg/m2
  AUC(0-inf): 103 µg·h/mL
  Cmax: 1520 ng/mL
[1]; iv, 3 mg/m2, t1/2
  half-life: 48.8 h
[1]; iv, 6 mg/m2
  AUC(0-inf): 252 µg·h/mL
  Cmax: 3150 ng/mL
[1]; iv, 6 mg/m2, t1/2
  half-life: 57.6 h
[1]; iv, 12 mg/m2
  AUC(0-inf): 457 µg·h/mL
  Cmax: 6480 ng/mL
[1]; iv, 12 mg/m2, t1/2
  half-life: 44 h
[1]; iv, 24 mg/m2
  AUC(0-inf): 955 µg·h/mL
  Cmax: 13700 ng/mL
[1]; iv, 24 mg/m2, t1/2
  half-life: 43.8 h
[1]; iv, 48 mg/m2
  AUC(0-inf): 2660 µg·h/mL
  Cmax: 30700 ng/mL
[1]; iv, 48 mg/m2, t1/2
  half-life: 59.3 h
[1]; iv, 80 mg/m2
  AUC(0-inf): 2390 µg·h/mL
  Cmax: 43400 ng/mL
[1]; iv, 80 mg/m2, t1/2
  half-life: 26.7 h
[1]; iv, 120 mg/m2
  AUC(0-inf): 6280 µg·h/mL
  Cmax: 68800 ng/mL
[1]; iv, 120 mg/m2, t1/2
  half-life: 48.3 h
[1]; iv, 160 mg/m2
  AUC(0-inf): 9440 µg·h/mL
  Cmax: 98400 ng/mL
[1]; iv, 160 mg/m2, t1/2
  half-life: 66.1 h
[1]; iv, 190 mg/m2
  AUC(0-inf): 9810 µg·h/mL
  Cmax: 143000 ng/mL
[1]; iv, 190 mg/m2, t1/2
  half-life: 53 h
[1]; iv, 225 mg/m2
  AUC(0-inf): 13200 µg·h/mL
  Cmax: 149000 ng/mL
[1]; iv, 225 mg/m2, t1/2
  half-life: 54.5 h
[1]; iv, 270 mg/m2
  AUC(0-inf): 8370 µg·h/mL
  Cmax: 150000 ng/mL
[1]; iv, 270 mg/m2, t1/2
  half-life: 35.6 h
[1]; iv, 320 mg/m2
  AUC(0-inf): 13000 µg·h/mL
  Cmax: 205000 ng/mL
[1]; iv, 320 mg/m2, t1/2
  half-life: 43.7 h
[1]; iv, 380 mg/m2
  AUC(0-inf): 34100 µg·h/mL
  Cmax: 310000 ng/mL
[1]; iv, 380 mg/m2, t1/2
  half-life: 84.4 h
[1]; t1/2 (mean)
  half-life: ~50 h
[2]
  CL (mean): 0.025 L/h/m^2
  Cmax and AUC with respect to dose: remained linear with respect to dose
  Vss (mean): 1.422 L/m^2
  dose proportionality for Cmax and AUCinf: demonstrate dose proportionality
[2]; 12 mg/m2
  AUC/Dose: 38106 m^2 · ng · h/ml/mg
  CL: 0.0283 l/h/m^2
  Cmax/Dose: 539.6 m^2 · ng/ml/mg
  Vss: 1.46 l/m^2
[2]; 48 mg/m2
  AUC/Dose: 55469 m^2 · ng · h/ml/mg
  CL: 0.0186 l/h/m^2
  Cmax/Dose: 640.3 m^2 · ng/ml/mg
  Vss: 1.40 l/m^2
[2]; 120 mg/m2
  AUC/Dose: 52326 m^2 · ng · h/ml/mg
  CL: 0.0202 l/h/m^2
  Cmax/Dose: 573.6 m^2 · ng/ml/mg
  Vss: 0.090 l/m^2
[2]; 225 mg/m2
  AUC/Dose: 58571 m^2 · ng · h/ml/mg
  CL: 0.0184 l/h/m^2
  Cmax/Dose: 662.2 m^2 · ng/ml/mg
  Vss: 1.08 l/m^2
[2]; 320 mg/m2
  AUC/Dose: 405478 m^2 · ng · h/ml/mg
  CL: 0.0260 l/h/m^2
  Cmax/Dose: 640.6 m^2 · ng/ml/mg
  Vss: 1.58 l/m^2

## distearoyl-phosphatidylethanolamine-N-[methoxy(polyethene glycol)-2000] [DSPE(PEG-2000)]
[2]
  CL (mean): 0.025 L/h/m^2
  Vss (mean): 1.409 L/m^2
  dose proportionality for Cmax and AUCinf: demonstrate dose proportionality

## CC(=O)O[C@@]12CO[C@@H]1C[C@H](O)[C@@]1(C)C(=O)[C@H](O)C3=C(C)[C@@H](OC(=O)[C@H](O)[C@@H](NC(=O)OC(C)(C)C)c4ccccc4)C[C@@](O)([C@@H](OC(=O)c4ccccc4)[C@H]21)C3(C)C [Docetaxel, docetaxel]
[1]; iv, 3 mg/m2
  Cmax: 15.5 ng/mL
[1]; iv, 3 mg/m2, t1/2
  half-life: 14 h
[1]; iv, 6 mg/m2
  Cmax: 36.3 ng/mL
[1]; iv, 6 mg/m2, t1/2
  half-life: 9.32 h
[1]; iv, 12 mg/m2
  Cmax: 74.7 ng/mL
[1]; iv, 12 mg/m2, t1/2
  half-life: 12.3 h
[1]; iv, 24 mg/m2
  Cmax: 149 ng/mL
[1]; iv, 24 mg/m2, t1/2
  half-life: 55.3 h
[1]; iv, 48 mg/m2
  Cmax: 187 ng/mL
[1]; iv, 48 mg/m2, t1/2
  half-life: 73.5 h
[1]; iv, 80 mg/m2
  Cmax: 307 ng/mL
[1]; iv, 80 mg/m2, t1/2
  half-life: 28.8 h
[1]; iv, 120 mg/m2
  Cmax: 702 ng/mL
[1]; iv, 120 mg/m2, t1/2
  half-life: 45.8 h
[1]; iv, 160 mg/m2
  Cmax: 879 ng/mL
[1]; iv, 160 mg/m2, t1/2
  half-life: 51.1 h
[1]; iv, 190 mg/m2
  AUC(0-inf): 18.8 µg·h/mL
  Cmax: 1130 ng/mL
[1]; iv, 190 mg/m2, t1/2
  half-life: 51.9 h
[1]; iv, 225 mg/m2
  AUC(0-inf): 33.9 µg·h/mL
  Cmax: 1040 ng/mL
[1]; iv, 225 mg/m2, t1/2
  half-life: 61.8 h
[1]; iv, 270 mg/m2
  AUC(0-inf): 26.2 µg·h/mL
  Cmax: 1190 ng/mL
[1]; iv, 270 mg/m2, t1/2
  half-life: 35.5 h
[1]; iv, 320 mg/m2
  AUC(0-inf): 37.6 µg·h/mL
  Cmax: 1740 ng/mL
[1]; iv, 320 mg/m2, t1/2
  half-life: 40.8 h
[1]; iv, 380 mg/m2
  AUC(0-inf): 107 µg·h/mL
  Cmax: 2900 ng/mL
[1]; iv, 380 mg/m2, t1/2
  half-life: 67.7 h
[3]; IV administration, FIG. 8A
  growth of PC3 human prostate xenograft (mean tumor volume over time): dose dependently inhibited growth
[3]; docetaxel 5 mg/kg (q4dx4)
  Partial Tumor Regression (%): 0%
  TGD: 34 days
  TGD (%): 213%
[3]; docetaxel 10 mg/kg (q4dx4)
  Partial Tumor Regression (%): 80%
  TGD: 69 days
  TGD (%): 431%
[3]; docetaxel 30 mg/kg (q21dx2)
  Partial Tumor Regression (%): 100%
  TGD: 73 days
  TGD (%): 456%
[3]; docetaxel 60 mg/kg (q21dx2)
  Partial Tumor Regression (%): 100%
  TGD: 86 days
  TGD (%): 538%
[3]; 1st dose group listed (5 mg/kg q4dx4 by order of Table 8)
  median survival: 62 days
[3]; 2nd dose group listed (10 mg/kg q4dx4 by order of Table 8)
  median survival: 88 days
[3]; 3rd dose group listed (30 mg/kg q21dx2 by order of Table 8)
  median survival: 93 days
[3]; 4th dose group listed (60 mg/kg q21dx2 by order of Table 8)
  median survival: 107 days
[4]; Taxotere® (docetaxel), Clarke & Rivory 1999, Prescribing Information
  reported t1/2: 12 h
[4]; [7]
  docetaxel Cmax: 2680 ng/mL
  docetaxel half-life: 10 to 19 h
[4]; plasma, therapeutic window, FIG. 2
  docetaxel Cmax associated with increased incidence of adverse effects: above 0.64 μg/ml
[5]; docetaxel 30 mg/kg
  Kidney AUC of docetaxel: 28 µg·h/g
  Liver AUC of docetaxel: 10 µg·h/g
  Lung AUC of docetaxel: 86 µg·h/g
  Muscle AUC of docetaxel: 23 µg·h/g
  Spleen AUC of docetaxel: 77 µg·h/g
  Tumor AUC of docetaxel: 276 µg·h/g
[5]; docetaxel 50 mg/kg
  time tumor retained measurable levels of docetaxel: 216 h
  Kidney AUC of docetaxel: 179 µg·h/g
  Liver AUC of docetaxel: 37 µg·h/g
  Lung AUC of docetaxel: 211 µg·h/g
  Muscle AUC of docetaxel: 64 µg·h/g
  Spleen AUC of docetaxel: 162 µg·h/g
  Tumor AUC of docetaxel: 442 µg·h/g
[5]; docetaxel 50 mg/kg, all tissues except tumor
  time after which docetaxel concentrations fell below the limits of quantitation in most tissues: 24 h
[5]; intravenous injection of docetaxel
  time after which tumor levels of docetaxel fell below the levels of quantitation (1.0 μg/g): nine
[6]; docetaxel 9 mg/kg
  Partial Tumor Regression (%): 0%
  TGD: 11
  TGD (%): 42%
  TGI (%): 38%
  median survival: 47 days
[6]; docetaxel 18 mg/kg
  Partial Tumor Regression (%): 33%
  TGD: 41
  TGD (%): 154%
  TGI (%): 91%
  median survival: 81 days
[6]; docetaxel 27 mg/kg
  Partial Tumor Regression (%): 60%
  TGD: 42
  TGD (%): 157%
  TGI (%): 98%
  median survival: 84 days
[6]; docetaxel 18 and 27 mg/kg
  tumor growth: inhibited tumor growth
[6]; docetaxel 18 and 27 mg/kg, all doses of TD-1 liposomes and PEGylated TD-1 liposomes, p<0.05, Mantel-Cox log-rank
  survival compared to saline: increased survival significantly more than saline
[2]
  CL (mean): 14.13 L/h/m^2
  Cmax and AUC with respect to dose: remained linear with respect to dose
  Vss (mean): 458.8 L/m^2
  dose proportionality for Cmax and AUCinf: demonstrate dose proportionality
[2]; 3 mg/m2
  AUC(0-inf): 0.225 µg·h/mL
[2]; 6 mg/m2
  AUC(0-inf): 0.265 µg·h/mL
[2]; 12 mg/m2
  AUC(0-inf): 0.721 µg·h/mL
  AUC/Dose: 60.1 m^2 · ng · h/ml/mg
  CL: 16.92 l/h/m^2
  Cmax/Dose: 6.22 m^2 · ng/ml/mg
  Vss: 257.1 l/m^2
[2]; 24 mg/m2
  AUC(0-inf): 4.899 µg·h/mL
[2]; 48 mg/m2
  AUC(0-inf): 5.297 µg·h/mL
  AUC/Dose: 110.4 m^2 · ng · h/ml/mg
  CL: 13.29 l/h/m^2
  Cmax/Dose: 3.90 m^2 · ng/ml/mg
  Vss: 705.3 l/m^2
[2]; 80 mg/m2
  AUC(0-inf): 4.798 µg·h/mL
[2]; 120 mg/m2
  AUC(0-inf): 28.103 µg·h/mL
  AUC/Dose: 234.2 m^2 · ng · h/ml/mg
  CL: 7.15 l/h/m^2
  Cmax/Dose: 5.85 m^2 · ng/ml/mg
  Vss: 292.5 l/m^2
[2]; 160 mg/m2
  AUC(0-inf): 16.518 µg·h/mL
[2]; 225 mg/m2
  AUC/Dose: 150.8 m^2 · ng · h/ml/mg
  CL: 6.75 l/h/m^2
  Cmax/Dose: 4.64 m^2 · ng/ml/mg
  Vss: 413.4 l/m^2
[2]; 320 mg/m2
  AUC/Dose: 117.6 m^2 · ng · h/ml/mg
  CL: 9.14 l/h/m^2
  Cmax/Dose: 5.43 m^2 · ng/ml/mg
  Vss: 404.0 l/m^2
